US10526314B2, “Hydroxyalkyl-substituted heteroaryltriazole derivatives and uses thereof” (BAYER AKTIENGESELLSCHAFT, priority 2016, dated 2020)

What was measured:
[1] = biological target: T1, human V2 receptor (Homo sapiens, UniProt P30518); assay: Cellular in vitro assay for determining vasopressin receptor activity (V2, CRE-luciferase); type: cell-based; details: CHO cell line transfected with human V2 receptor; [Arg8]-vasopressin at EC50 concentration; read-out: IC50 hV2
T1 construct: expressed in transfected cells; host or cells: CHO K1 (ATCC) expressing firefly luciferase under a CRE-responsive promoter
T1 sequence (P30518 whole entry): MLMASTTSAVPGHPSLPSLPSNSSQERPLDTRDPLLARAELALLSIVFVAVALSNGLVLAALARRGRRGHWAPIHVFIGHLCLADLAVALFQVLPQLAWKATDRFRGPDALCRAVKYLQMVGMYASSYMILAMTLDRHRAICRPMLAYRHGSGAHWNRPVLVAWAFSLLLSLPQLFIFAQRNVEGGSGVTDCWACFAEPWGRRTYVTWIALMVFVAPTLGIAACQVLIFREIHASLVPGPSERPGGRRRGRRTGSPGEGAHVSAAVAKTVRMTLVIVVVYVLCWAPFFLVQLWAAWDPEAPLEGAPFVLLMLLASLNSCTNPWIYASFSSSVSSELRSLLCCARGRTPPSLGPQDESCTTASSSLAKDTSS
Procedure: (§1) B-1. Cellular In Vitro Assay for Determining Vasopressin Receptor Activity
(§2) The identification of agonists and antagonists of the V1a and V2 vasopressin receptors from humans, rats and dogs as well as the quantification of the activity of the compounds of the invention is carried out using recombinant cell lines. These cell lines originally derive from a hamster's ovary epithelial cell (Chinese Hamster Ovary, CHO K1, ATCC: American Type Culture Collection, Manassas, Va. 20108, USA). The test cell lines constitutively express the human, rat or dog V1a or V2 receptors. In case of the Gαq-coupled V1a receptors, cells are also stably transfected with a modified form of the calcium-sensitive photoproteins aequorin (human and rat V1a) or obelin (dog V1a), which, after reconstitution with the cofactor coelenterazine, emit light when there are increases in free calcium concentrations [Rizzuto R, Simpson A W, Brini M, Pozzan T, Nature 358, 325-327 (1992); Illarionov B A, Bondar V S, Illarionova V A, Vysotski E S, Gene 153 (2), 273-274 (1995)]. The resulting vasopressin receptor cells react to stimulation of the recombinantly expressed V1a receptors by intracellular release of calcium ions, which can be quantified by the resulting photoprotein luminescence. The Gs-coupled V2 receptors are stably transfected into cell lines expressing the gene for firefly luciferase under control of a CRE-responsible promoter. Activation of V2 receptors induces the activation of the CRE-responsive promoter via cAMP increase, thereby inducing the expression of firefly luciferase. The light emitted by photoproteins of V1a cell lines as well as the light emitted by firefly luciferase of V2 cell lines corresponds to the activation or inhibition of the respective vasopressin receptor. The bioluminescence of the cell lines is detected using a suitable luminometer [Milligan G, Marshall F, Rees S, Trends in Pharmacological Sciences 17, 235-237 (1996)].
Vasopressin V2 Receptor Cell Lines:
On the day before the assay, the cells are plated out in culture medium (DMEM/F12, 2% FCS, 2 mM glutamine, 10 mM HEPES) in 384-well microtiter plates and kept in a cell incubator (96% humidity, 5% v/v CO2, 37° C.). On the day of the assay, test compounds in various concentrations and the agonist [Arg^8]-vasopressin at EC50 concentration are added together to the wells, and plates are incubated for 3 hours in a cell incubator. Upon addition of the cell lysis reagent Triton™ and the substrate luciferin, luminescence of firefly luciferase is measured in a luminometer.
(§3) Table 1A below lists individual IC50 values for the compounds of the invention (including racemic mixtures as well as separated enantiomers) that were obtained from cell lines transfected with the human V1a or V2 receptor: […]

[2] = biological target: T2, human V1a receptor (Homo sapiens, UniProt P37288); assay: Cellular in vitro assay for determining vasopressin receptor activity (V1a, aequorin luminescence); type: cell-based; details: for IC50: CHO cell line transfected with human V1a receptor, [Arg8]-vasopressin at EC50 concentration, read-out: IC50 hV1a; for ratio IC50 hV2/hV1a: selectivity ratio IC50 hV2 / IC50 hV1a
T2 construct: expressed in transfected cells; host or cells: CHO K1 (ATCC), also stably transfected with a modified aequorin
T2 sequence (P37288 whole entry): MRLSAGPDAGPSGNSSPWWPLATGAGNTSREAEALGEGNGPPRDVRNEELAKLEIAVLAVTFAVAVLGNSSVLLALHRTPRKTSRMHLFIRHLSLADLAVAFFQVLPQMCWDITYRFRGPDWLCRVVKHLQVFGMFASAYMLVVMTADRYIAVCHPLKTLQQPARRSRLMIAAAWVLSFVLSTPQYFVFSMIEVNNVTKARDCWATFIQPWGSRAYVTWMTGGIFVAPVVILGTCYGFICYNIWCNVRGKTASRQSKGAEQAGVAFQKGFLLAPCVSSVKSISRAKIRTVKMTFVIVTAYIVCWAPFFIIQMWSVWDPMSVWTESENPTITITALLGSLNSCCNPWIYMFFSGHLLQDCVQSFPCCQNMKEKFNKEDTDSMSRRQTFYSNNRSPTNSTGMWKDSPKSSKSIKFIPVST
Procedure: as §1, §2
Vasopressin V1a Receptor Cell Lines:
On the day before the assay, the cells are plated out in culture medium (DMEM/F12, 2% FCS, 2 mM glutamine, 10 mM HEPES, 5 μg/ml coelenterazine) in 384-well microtiter plates and kept in a cell incubator (96% humidity, 5% v/v CO2, 37° C.). On the day of the assay, test compounds in various concentrations are placed for 10 minutes in the wells of the microtiter plate before the agonist [Arg^8]-vasopressin at EC50 concentration is added. The resulting light signal is measured immediately in a luminometer.
as §3

Compound | IC50 [1] | IC50 [2] | ratio IC50 hV2/hV1a [2]
C[C@H](O)c1nc(Cn2nc(-c3ccc(Cl)cc3)n(C[C@H](O)C(F)(F)F)c2=O)nn1-c1nccn1C [Example 22, 5-(4-Chlorophenyl)-2-({5-[(1S)-1-hydroxyethyl]-1-(1-methyl-1H-imidazol-2-yl)-1H-1,2,4-triazol-3-yl}methyl)-4-[(2S)-3,3,3-trifluoro-2-hydroxypropyl]-2,4-dihydro-3H-1,2,4-triazol-3-one] | 138 nM | 68.1 nM | 2.0
C[C@H](O)c1nc(Cn2nc(-c3ccc(Cl)cc3)n(C[C@H](O)C(F)(F)F)c2=O)nn1-c1cnccc1Cl [Example 2, 5-(4-Chlorophenyl)-2-({1-(4-chloropyridin-3yl)-5-[(1S)-1-hydroxyethyl]-1H-1,2,4-triazol-3-yl}methyl)-4-[(2S)-3,3,3-trifluoro-2-hydroxypropyl]-2,4-dihydro-3H-1,2,4-triazol-3-one] | 5.65 nM | 0.53 nM | 10.7
C[C@H](O)c1nc(Cn2nc(-c3ccc(Cl)cc3)n(C[C@H](O)C(F)(F)F)c2=O)nn1-c1ncccc1Cl [Example 3, 5-(4-Chlorophenyl)-2-({1-(3-chloropyridin-2-yl)-5-[(1S)-1-hydroxyethyl]-1H-1,2,4-triazol-3-yl}methyl)-4-[(2S)-3,3,3-trifluoro-2-hydroxypropyl]-2,4-dihydro-3H-1,2,4-triazol-3-one] | 8.07 nM | 0.57 nM | 14.2
CC(O)c1nc(Cn2nc(-c3ccc(Cl)cc3)n(C[C@H](O)C(F)(F)F)c2=O)nn1-c1cncc(Cl)c1 (single isomer, unassigned) [Example 28] | 51.7 nM | 20.6 nM | 2.5
C[C@@H](O)c1nc(Cn2nc(-c3ccc(Cl)cc3)n(C[C@H](O)C(F)(F)F)c2=O)nn1-c1c(Cl)cncc1Cl [Example 4, 5-(4-Chlorophenyl)-2-({1-(3,5-dichloropyridin-4-yl)-5-[(1R)-1-hydroxyethyl]-1H-1,2,4-triazol-3-yl}methyl)-4-[(2S)-3,3,3-trifluoro-2-hydroxypropyl]-2,4-dihydro-3H-1,2,4-triazol-3-one] | 8.65 nM | 1.3 nM | 6.7
C[C@H](O)c1nc(Cn2nc(-c3ccc(Cl)cc3)n(C[C@H](O)C(F)(F)F)c2=O)nn1-c1ncccc1OC(F)(F)F [Example 12, 5-(4-Chlorophenyl)-2-({5-[(1S)-1-hydroxyethyl]-1-[3-(trifluoromethoxy)pyridin-2-yl]-1H-1,2,4-triazol-3-yl}methyl)-4-[(2S)-3,3,3-trifluoro-2-hydroxypropyl]-2,4-dihydro-3H-1,2,4-triazol-3-one] | 64.7 nM | 5.7 nM | 11.3
C[C@@H](O)c1nc(Cn2nc(-c3ccc(Cl)cc3)n(C[C@H](O)C(F)(F)F)c2=O)nn1-c1ccccn1 [Example 23, 5-(4-Chlorophenyl)-2-({5-[(1R)-1-hydroxyethyl]-1-(pyridin-2-yl)-1H-1,2,4-triazol-3-yl}methyl)-4-[(2S)-3,3,3-trifluoro-2-hydroxypropyl]-2,4-dihydro-3H-1,2,4-triazol-3-one] | 103 nM | 86.5 nM | 1.2
C[C@@H](O)c1nc(Cn2nc(-c3ccc(Cl)cc3)n(C[C@H](O)C(F)(F)F)c2=O)nn1-c1ncccc1OC(F)(F)F [Example 16, 5-(4-Chlorophenyl)-2-({5[(1R)-1hydroxyethyl]-1-[3-(trifluoromethoxy)pyridin-2-yl]-1H-1,2,4-triazol-3yl}methyl)-4-[(2S)-3,3,3-trifluoro-2-hydroxypropyl]-2,4-dihydro-3H-1,2,4-triazol-3-one] | 387 nM | 13 nM | 29.7
C[C@H](O)c1nc(Cn2nc(-c3ccc(Cl)cc3)n(C[C@H](O)C(F)(F)F)c2=O)nn1-c1ccc(Cl)cn1 [Example 15, 5-(4-Chlorophenyl)-2-({1-(5-chloropyridin-2-yl)-5-[(1S)-1-hydroxyethyl]-1H-1,2,4-triazol-3-yl}methyl)-4-[(2S)-3,3,3-trifluoro-2-hydroxypropyl]-2,4-dihydro-3H-1,2,4-triazol-3-one] | 11.7 nM | 8.25 nM | 1.4
COc1cccnc1-n1nc(Cn2nc(-c3ccc(Cl)cc3)n(C[C@H](O)C(F)(F)F)c2=O)nc1[C@H](C)O [Example 8, 5-(4-Chlorophenyl)-2-({5-[(1S)-1-hydroxyethyl]-1-(3-methoxypyridin-2-yl)-1H-1,2,4-triazol-3-yl}methyl)-4-[(2S)-3,3,3-trifluoro-2-hydroxypropyl]-2,4-dihydro-3H-1,2,4-triazol-3-one] | 9.4 nM | 3.65 nM | 2.6
CC(O)c1nc(Cn2nc(-c3ccc(Cl)cc3)n(C[C@H](O)C(F)(F)F)c2=O)nn1-c1cccnc1 (mixture of isomers) [Example 24] | 773 nM | 49.1 nM | 15.8
CC(O)c1nc(Cn2nc(-c3ccc(Cl)cc3)n(C[C@H](O)C(F)(F)F)c2=O)nn1-c1cncc(Cl)c1 (single isomer, unassigned) [Example 29] | 15.2 nM | 7.71 nM | 2.0
C[C@H](O)c1nc(Cn2nc(-c3ccc(Cl)cc3)n(C[C@H](O)C(F)(F)F)c2=O)nn1-c1cccc(F)n1 [Example 17, 5-(4-Chlorophenyl)-2-({1-(6-fluoropyridin-2-yl)-5-[(1S)-1-hydroxyethyl]-1H-1,2,4-triazol-3-yl}methyl)-4-[(2S)-3,3,3-trifluoro-2-hydroxypropyl]-2,4-dihydro-3H-1,2,4-triazol-3-one] | 39.5 nM | 14.5 nM | 2.7
C[C@H](O)c1nc(Cn2nc(-c3ccc(Cl)cc3)n(C[C@H](O)C(F)(F)F)c2=O)nn1-c1ncccc1F [Example 11, 5-(4-Chlorophenyl)-2-({1-(3-fluoropyridin-2-yl)-5-[(1S)-1-hydroxyethyl]-1H-1,2,4-triazol-3-yl}methyl)-4-[(2S)-3,3,3-trifluoro-2-hydroxypropyl]-2,4-dihydro-3H-1,2,4-triazol-3-one] | 22.7 nM | 5.6 nM | 4.1
CC(O)c1nc(Cn2nc(-c3ccc(Cl)cc3)n(C[C@H](O)C(F)(F)F)c2=O)nn1-c1cncc(Cl)c1 (mixture of isomers) [Example 27, 5-(4-Chlorophenyl)-2-({1-(5-chloropyridin-3-yl)-5-(1hydroxyethyl)-1H-1,2,4triazol-3-yl}methyl)-4-[(2S)-3,3,3-trifluoro-2-hydroxypropyl]-2,4-dihydro-3H-1,2,4-triazol-3-one] | 18.7 nM | 12.3 nM | 1.5
C[C@@H](O)c1nc(Cn2nc(-c3ccc(Cl)cc3)n(C[C@H](O)C(F)(F)F)c2=O)nn1-c1ccncc1Cl [Example 6, 5-(4-Chlorophenyl)-2-({1-(3-chloropyridin-4-yl)-5-[(1R)-1-hydroxyethyl]-1H-1,2,4-triazol-3-yl}methyl)-4-[(2S)-3,3,3-trifluoro-2-hydroxypropyl]-2,4-dihydro-3H-1,2,4-triazol-3-one] | 40.3 nM | 2.35 nM | 17.2
C[C@H](O)c1nc(Cn2nc(-c3ccc(Cl)cc3)n(C[C@H](O)C(F)(F)F)c2=O)nn1-c1c(Cl)cncc1Cl [Example 9, 5-(4-Chlorophenyl)-2-({1-(3,5-dichloropyridin-4-yl)-5-[(1S)-1-hydroxyethyl]-1H-1,2,4-triazol-3-yl}methyl)-4-[(2S)-3,3,3-trifluoro-2-hydroxypropyl]-2,4-dihydro-3H-1,2,4-triazol-3-one] | 24.5 nM | 4.13 nM | 5.9
